Data published in patent publication US10947244B2, “Forms of a PI3K delta selective inhibitor for use in pharmaceutical formulations” (Rhizen Pharmaceuticals SA, priority 2014, dated 2021).

Experiment: Particle size (PSD) analysis, Malvern Master Sizer 2000 dry powder
Type: physicochemical
Details: PTSA salt of TGR-1202; average of three experiments
Protocol: Particle size (PSD) analysis of the PTSA salts of TGR-1202 prepared in Examples 1 and 2 was performed as described below using a Malvern Master Sizer 2000 with the Scirocco 2000 dry powder system. The instrument parameters were: • Particle RI: 1.50 • Absorption index: 0.1 • Obscuration range: 1-5% • Analysis Model: General purpose • Sensitivity: Normal • Air Pressure: 2.0 Bar • Feed rate: 30% • Sample measurement Time: 6 Second • Background measurement Time: 6 Second • Number of measurement cycle: 1
Procedure: 5 g of TGR-1202 was transferred into a sample measuring cell (i.e., Scirocco 2000) and the airflow was started. Laser intensity was maintained more than 70%. Measurement was started and the vibration feed rate was increased in order to achieve the obscuration within the limits. Once the obscuration came within the limit, measurement was recorded. Analysis was performed in triplicate and the results provided are an average of three experiments.

CC(C)Oc1ccc(-c2nn([C@@H](C)c3oc4ccc(F)cc4c(=O)c3-c3cccc(F)c3)c3ncnc(N)c23)cc1F [Example 1, (S)-2-(1-(4-amino-3-(3-fluoro-4-isopropoxyphenyl)-1H-pyrazolo[3,4-d]pyrimidin-1-yl)ethyl)-6-fluoro-3-(3-fluorophenyl)-4H-chromen-4-one 4-methyl-benzenesulfonate]
d(0.1): 8.01 μm | d(0.5): 147.41 μm | d(0.9): 510.73 μm

CC(C)Oc1ccc(-c2nn([C@@H](C)c3oc4ccc(F)cc4c(=O)c3-c3cccc(F)c3)c3ncnc(N)c23)cc1F [Example 2, (S)-2-(1-(4-amino-3-(3-fluoro-4-isopropoxyphenyl)-1H-pyrazolo[3,4-d]pyrimidin-1-yl)ethyl)-6-fluoro-3-(3-fluorophenyl)-4H-chromen-4-one 4-methyl-benzenesulfonate]
d(0.1): 1.07 μm | d(0.5): 3.98 μm | d(0.9): 12.18 μm
